Data from PMC5388737, “Exploring the Role of CYP3A4 Mediated Drug Metabolism in the Pharmacological Modulation of Nitric Oxide Production” (Frontiers in Pharmacology, 2017).
Values after ≈ are worked out from the molar mass of the structure shown. Read-outs that look alike come from different tables or passages of the source.

Legend:
[1] = system: NO production in LPS stimulated RAW 264.7 macrophages; assay: NO production in LPS stimulated RAW 264.7 murine macrophages (Griess assay); type: cell-based, mouse; details: for IC50: Mus musculus, RAW264.7
Method: The mouse macrophage cells, RAW264.7 (ATCC® TIB-71™) were obtained from ATCC and cultured in Dulbecco's Modified Eagle Medium (DMEM), supplemented with 10% FBS and 2 mM l-glutamine, in a humidified 5% CO2 atmosphere at 37°C. All cell handling steps were carried out using the SelecT automated cell culture system. RAW264.7 cells were seeded into 96-well plates at a density of 20 × 10^3 cells per well and grown to approximately 50% of confluence (24 h). They were cultured for another 24 h with each of the test compounds described above (5 μL of stock serial dilutions in 20% DMSO were dispensed into 190 μL of fresh medium using Perkin Elmer Evolution P3, Waltham, MA,). Afterwards, these cells were stimulated with LPS (5 μL of 6 μg/mL were dispensed using a Thermo Scientific Multidrop Combi dispenser, MTX Lab Systems, Vienna, VA). Untreated (5 μL of 20% DMSO, compound vehicle) and unstimulated (5 μL of purified water, LPS vehicle) cells were used as negative controls (n = 4) while untreated but stimulated cells were used as positive controls (n = 4) in each assay plate.
Test compound activities were calculated automatically using the Genedata Screener software (Genedata AG, Basel, Switzerland), and the percentage inhibition of each commercial compound was determined by Equation (1), integrated in the Genedata Screener software. Percentage of control of production of nitric oxide was: (1) Percentage of control = (Abswell − Absneg/Abspos − Absneg) ∗ 100 where Abswell is the absorbance measured per specific well; and Abspos and Absneg are the average absorbance measured for the positive (LPS/solvent vehicle) and negative controls (-LPS/solvent vehicle, respectively). […] Dexamethasone was used as positive control standard. All compounds were tested in triplicate (n = 3) in two different days.

[2] = RXT metabolite profile in HLM incubations (LC-HRMS); type: in vitro ADME, human; details: RXT incubation with HLM; peak area of [M+H]+ ion
Method: Test compounds (ERY, RXT, CLT, and AZT) were incubated in HLM at an initial substrate concentration of 1 μM in a 96-well format. Standard high-throughput incubation conditions were used with time points of 0, 15, 30, 45, 60, and 90 min. Protein concentration was 1 mg/mL and NADPH was present at 4 mM. Reaction was quenched using an equal volume of AcN and then diluted 1:1 with water prior to analysis by liquid chromatography coupled to high resolution mass spectrometry (LC-HRMS): Chromatography. The incubations were analyzed using an Agilent Series 1290 LC system (Agilent Technologies, Santa Clara, CA, USA). All analyses were performed using a Supelco Discovery HS C18 (2.1 × 50 mm) 3 μm column that was held at 30°C. Solvent A contained water with 0.1% formic acid and solvent B contained AcN with 0.1% formic acid, and the flow rate was set at 400 μL/min. The gradient elution was performed as follows: 0–0.5 min 0% eluent B; 0.5–7 min 100% eluent B; 7–9 min 100% eluent B; 9–9.2 min 0% eluent B; and 9.2–10.5 min 0% eluent B. High resolution mass spectrometry: AB SCIEX TripleTOF 5600 quadrupole-time-of-flight mass spectrometer (Q-TOF-MS) in positive ESI mode (AB SCIEX, Concord, ON, Canada) was used with a generic method for data acquisition on all compounds and samples. The method consisted of a time of flight mass survey scan (TOF MS), followed by two information-dependent acquisitions (IDA) TOF MS/MS scans. The mass range was m/z 100–1,000 for both MS and MS/MS. An accumulation time of 100 ms was used for each scan. Mass defect triggered IDA was used for the MS/MS scans (collision energy of 35 eV with a spread of ±10 eV). External mass calibration was performed automatically using a calibrant delivery system. Data processing was performed using MultiQuant Software and MetabolitePilot Software (AB SCIEX, Concord, ON, Canada) to process the TOF MS data and generate all quantitative information. An extracted ion current (XIC) window of ±10 mDa was used for all compounds. […]

CYP3A4 = CYP3A4 (Homo sapiens, UniProt P08684); assay: in vitro; details: recombinant enzyme, pH 7.4
Sequence of CYP3A4 (P08684 whole entry): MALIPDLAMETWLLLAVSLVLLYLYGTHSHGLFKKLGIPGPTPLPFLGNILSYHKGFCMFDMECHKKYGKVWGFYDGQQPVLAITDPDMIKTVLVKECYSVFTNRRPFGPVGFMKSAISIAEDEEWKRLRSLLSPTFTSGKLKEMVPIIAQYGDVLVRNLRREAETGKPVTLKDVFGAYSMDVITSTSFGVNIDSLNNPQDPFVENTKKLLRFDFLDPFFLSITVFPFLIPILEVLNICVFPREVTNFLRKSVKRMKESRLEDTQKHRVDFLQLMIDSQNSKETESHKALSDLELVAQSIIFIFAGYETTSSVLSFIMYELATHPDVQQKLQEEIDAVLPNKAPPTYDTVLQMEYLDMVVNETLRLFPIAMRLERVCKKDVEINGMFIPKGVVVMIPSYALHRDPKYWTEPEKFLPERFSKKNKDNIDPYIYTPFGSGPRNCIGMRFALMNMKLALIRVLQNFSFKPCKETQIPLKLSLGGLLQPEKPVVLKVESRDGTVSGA
Method: Control samples were prepared in the absence of test compounds by the addition of solvent alone.
Briefly, the observed inactivation rate constant at each macrolide concentration was calculated from the initial slopes of the remaining enzyme activity, plotted semi-logarithmically against the pre-incubation time. Non-linear regression analysis of the negative slopes against inhibitor concentration enables Kinact and KI to be calculated. […] All compounds were tested in triplicate in two different days for every methodology studied. […].

[3] = Turbidimetric kinetic aqueous solubility (NIVA-CYPI-KS); type: physicochemical; details: potassium phosphate buffer, 37 °C, pH 7.4, aqueous buffer, kinetic from dmso stock, potassium phosphate buffer pH 7.4, 2 h, turbidimetry 620 nm
Method: (§1) Serial dilutions of test compounds in 100% DMSO were carried out on a Biomek FX workstation coupled with a stacker carrousel (Beckman Coulter Inc. Brea, California). […] Compounds for NO production assessment were also prepared from serial dilutions in 100% DMSO (20 μL) which were combined with water (80 μL).
(§2) Briefly, CYP3A4 inhibition studies were conducted using human recombinant c-DNA expressed CYP3A4 enzymes by quantification of non-fluorescent substrate, 7-benzyloxy-4-(trifluoromethyl) coumarin (BFC) transformation to a fluorescent product (7-HFC), which is mediated by CYP3A4. For aqueous solubility assessment, serial dilutions of test compounds (imidazole derivatives and macrolides) dissolved in DMSO/AcN [35:65] [v/v] (2 μL) were combined with a 180 μL potassium phosphate buffer (pH 7.4) using an Evolution P3 liquid handling station. Then the plates were incubated for 2 h at 37°C to allow slow compound precipitation. Thereafter, absorbance was measured at 620 nm by an EnVision multilabel plate reader. Absorbance signals were used to determine compound solubility limits. Pyrene was used as standard control for precipitation in turbidimetric kinetic solubility determination. […] Finally, reaction product (7-HFC) formation was quantify using florescence measurements. All compounds were tested in triplicate in two different days.

[4] = system: primary cultures of alveolar rat macrophages; parameters: method as in Tamaoki et al., 1999; Kohri et al., 2000; details: ref Tamaoki et al., 1999, Kohri et al., 2000; cited from earlier work
[5] = biological target: human recombinant c-DNA expressed CYP3A4 (Homo sapiens, UniProt P08684); assay: CYP3A4 reversible inhibition (NIVA-CYPI-KS, BFC substrate)
Sequence of human recombinant c-DNA expressed CYP3A4 (P08684 whole entry): as above
Method: as §1, §2

[6] = In vitro metabolic stability in human liver microsomes; type: in vitro ADME; details: HLM 1 mg/mL, 1 μM substrate, NADPH, read-out: Met. stability T1/2
Method: Protein concentration was 1 mg/mL and NADPH was present at 4 mM. Reaction was quenched using an equal volume of AcN and then diluted 1:1 with water prior to analysis by liquid chromatography coupled to high resolution mass spectrometry (LC-HRMS): Chromatography. The incubations were analyzed using an Agilent Series 1290 LC system (Agilent Technologies, Santa Clara, CA, USA). […] Solvent A contained water with 0.1% formic acid and solvent B contained AcN with 0.1% formic acid, and the flow rate was set at 400 μL/min. The gradient elution was performed as follows: 0-0.5 min 0% eluent B; 0.5-7 min 100% eluent B; 7-9 min 100% eluent B; 9-9.2 min 0% eluent B; and 9.2-10.5 min 0% eluent B. High resolution mass spectrometry: AB SCIEX TripleTOF 5600 quadrupole-time-of-flight mass spectrometer (Q-TOF-MS) in positive ESI mode (AB SCIEX, Concord, ON, Canada) was used with a generic method for data acquisition on all compounds and samples. The method consisted of a time of flight mass survey scan (TOF MS), followed by two information-dependent acquisitions (IDA) TOF MS/MS scans. […] An accumulation time of 100 ms was used for each scan. Mass defect triggered IDA was used for the MS/MS scans (collision energy of 35 eV with a spread of ±10 eV). External mass calibration was performed automatically using a calibrant delivery system. Data processing was performed using MultiQuant Software and MetabolitePilot Software (AB SCIEX, Concord, ON, Canada) to process the TOF MS data and generate all quantitative information. An extracted ion current (XIC) window of ±10 mDa was used for all compounds. Peak areas were used to plot the Ln % remaining relative to t = 0.

[7] = LPS stimulated RAW 264.7, 24 h, concentrations with viability <80% rejected, read-out: NO production IC50
[8] = inferred from relative composition of the RXT metabolite mixture, read-out: inferred IC50 for inactivation of NO production
[9] = read-out: Solubility Range Lower bound
[10] = read-out: Solubility Range Upper bound

SMILES: CC(=O)N1CCN(c2ccc(OCC3COC(Cn4ccnc4)(c4ccc(Cl)cc4Cl)O3)cc2)CC1 (stereo not drawn) [Ketoconazole, ketoconazole]
- IC50 [1, 7]: > 10 µM

SMILES: CCC1OC(=O)C(C)C(OC2CC(C)(OC)C(O)C(C)O2)C(C)C(OC2OC(C)CC(N(C)C)C2O)C(C)(O)CC(C)C(=NO)C(C)C(O)C1(C)O (stereo not drawn) [M1, ERY oxime]
- IC50 [1, 8]: 23.1 mg/L
- Area (%) relative content of parent and metabolites [2]: 20%

SMILES: CC[C@H]1OC(=O)[C@H](C)[C@@H](O[C@H]2C[C@@](C)(OC)[C@@H](O)[C@H](C)O2)[C@H](C)[C@@H](O[C@@H]2O[C@H](C)C[C@H](N(C)C)[C@H]2O)[C@](C)(O)C[C@@H](C)/C(=N\OCOCCOC)[C@H](C)[C@@H](O)[C@]1(C)O [Roxythromycin, (E)-ERY-9-[O-[(2-methoxyethoxy)methyl]oxime]]
- IC50 [1, 7]: > 250 µM
- inactivation of NO production ([1]; from 0.488 to 250 μM, LPS stimulated RAW 264.7): no inactivation at all
- CYP3A4 TDI KI (CYP3A4): 0.29 µM
- kinact (CYP3A4): 0.000715 s⁻¹
- solubility at 2 h [3, 9]: > 86 µM
- solubility at 2 h [3, 10]: > 86 µM
- IC50 in NO production [4]: 5 mg/L (≈ 5.97 µM)
- IC50 [5]: 6.41 µM
- half-life at 1 μM [6]: 38.1 min
- Area (%) relative content of parent and metabolites [2]: 65%

SMILES: CCC1OC(=O)C(C)C(OC2CC(C)(OC)C(O)C(C)O2)C(C)C(OC2OC(C)CC(NC)C2O)C(C)(O)CC(C)C(=NO)C(C)C(O)C1(C)O (stereo not drawn) [M5, Demethylated ERY oxime]
- IC50 [1, 8]: 4.74 mg/L
- Area (%) relative content of parent and metabolites [2]: 2%

SMILES: CC[C@H]1OC(=O)[C@H](C)[C@@H](O[C@H]2C[C@@](C)(OC)[C@@H](O)[C@H](C)O2)[C@H](C)[C@@H](O[C@@H]2O[C@H](C)C[C@H](N(C)C)[C@H]2O)[C@](C)(OC)C[C@@H](C)C(=O)[C@H](C)[C@@H](O)[C@]1(C)O [Claritromycin, clarithromycin]
- NO production, percentage of control ([1]; 62.5 μM (highest noncytotoxic dose), LPS stimulated RAW 264.7): 85.2%
- IC50 [1, 7]: > 62.5 µM
- CYP3A4 TDI KI (CYP3A4): 2.68 µM
- solubility at 2 h [3, 9]: > 86 µM
- solubility at 2 h [3, 10]: > 86 µM
- half-life at 1 μM [6]: 50.6 min

SMILES: CC[C@H]1OC(=O)[C@H](C)[C@@H](O[C@H]2C[C@@](C)(OC)[C@@H](O)[C@H](C)O2)[C@H](C)[C@@H](O[C@@H]2O[C@H](C)C[C@H](N(C)C)[C@H]2O)[C@](C)(O)C[C@@H](C)CN(C)[C@H](C)[C@@H](O)[C@]1(C)O [Azithromycin]
- NO production, percentage of control ([1]; 250 μM (highest noncytotoxic dose), LPS stimulated RAW 264.7): 53.82 % of control
- IC50 [1, 7]: > 250 µM
- solubility at 2 h [3, 9]: > 86 µM
- solubility at 2 h [3, 10]: > 86 µM
- half-life at 1 μM [6]: > 60 min

SMILES: CC[C@H]1OC(=O)[C@H](C)[C@@H](O[C@H]2C[C@@](C)(OC)[C@@H](O)[C@H](C)O2)[C@H](C)[C@@H](O[C@@H]2O[C@H](C)C[C@H](N(C)C)[C@H]2O)[C@](C)(O)C[C@@H](C)C(=O)[C@H](C)[C@@H](O)[C@]1(C)O [Erythromycin, erythromycin]
- IC50 [1, 7]: > 250 µM
- solubility at 2 h [3, 9]: > 86 µM
- solubility at 2 h [3, 10]: > 86 µM
- IC50 [5]: 3.21 µM
- half-life at 1 μM [6]: 21.7 min

SMILES: Clc1ccccc1C(c1ccccc1)(c1ccccc1)n1ccnc1 [Clotrimazole, clotrimazole]
- solubility at 2 h [3, 9]: 2.59 µM (≈ 0.893 µg/mL)
- solubility at 2 h [3, 10]: 10.3 µM (≈ 3.57 µg/mL)

SMILES: C[C@@H]1C[C@H]2[C@@H]3CCC4=CC(=O)C=C[C@]4(C)[C@@]3(F)[C@@H](O)C[C@]2(C)[C@@]1(O)C(=O)CO [Dexamethasone]
- IC50 [1, 7]: 0.00721 µM

SMILES: Clc1ccc(COC(Cn2ccnc2)c2ccc(Cl)cc2Cl)c(Cl)c1 (stereo not drawn) [Miconazole, miconazole]
- solubility at 2 h [3, 9]: 8.62 µM (≈ 3.59 µg/mL)
- solubility at 2 h [3, 10]: 34.5 µM (≈ 14.3 µg/mL)
